The values below come from patent US20110162981A1, “METHODS AND COMPOSITIONS FOR PREVENTING, REDUCTING OR TREATING DAMAGE CAUSED BY ISCHEMIA AND SCHEMIA-LIKE CONDITIONS” (priority 2008, published 2011).

The experiment has as its system ischemia-induced brain lesion (middle cerebral artery occlusion). Nature of the experiment: MCAO/reperfusion stroke model, TTC staining lesion volume. The class given is in vivo, Sprague Dawley rats. To be noted: ovariectomized female SD rats, 1 hr MCAO.

Regarding `C[C@]12CC[C@@H]3c4ccc(O)cc4CC[C@H]3[C@@H]1CC[C@@H]2O` [17 β-Estradiol, 17-beta estradiol], where the note is “24 hours after onset of reperfusion, TTC staining, mean”, the “Ischemic Lesion Volume (means, mm^3)” value is listed as 147.4 mm^3. For the same molecule, the “reduction of ischemia-induced brain lesion compared with control rats” value (24 hours reperfusion, vs control diet rats) turned out to be 48%.
